Patent US20090232838A1, “Ligands of melanocortin receptors” (priority 2005, published 2009)

What was measured:
hMC1-R [1] = biological target: T1, hMC1-R (Homo sapiens, UniProt Q01726); test: Radioligand binding assay, hMC1-R
T1 construct: expressed in transfected cells; host or cells: CHO-K1
Experimental: (§1) Cellular membranes used for the in vitro receptor binding assays were obtained from transgenic CHO-K1 cells stably expressing hMC-R receptor subtypes 1, 3, 4 or 5. […] The pellets were resuspended in the same buffer and centrifuged at 50,000 g for 10 minutes at approximately 4° C. The washed pellets containing the cellular membranes were stored at approximately −80° C.
(§2) Filters were washed three times with 50 mM Tris-HCl at p-H 7.4 at a temperature of approximately 0-4° C. and then assayed for radioactivity using a Packard Topcount® scintillation counter. Binding data were analyzed by computer-assisted non-linear regression analysis (XL fit; IDBS).

hMC3-R [2] = biological target: T2, hMC3-R (Homo sapiens, UniProt P41968); test: Radioligand binding assay, hMC3-R
T2 construct: expressed in transfected cells; host or cells: CHO-K1
Experimental: as §1, §2

hMC4-R [3] = biological target: T3, hMC4-R (Homo sapiens, UniProt P32245); test: Radioligand binding assay, hMC4-R
T3 construct: expressed in transfected cells; host or cells: CHO-K1
Experimental: as §1, §2

hMC5-R [4] = biological target: T4, hMC5-R (Homo sapiens, UniProt P33032); test: Radioligand binding assay, hMC5-R
T4 construct: expressed in transfected cells; host or cells: CHO-K1
Experimental: as §1, §2

hMC1-R [5] = biological target: T1, hMC1-R; test: cyclic AMP bioassay, hMC1-R; format: cell-based
Experimental: (§3) Intracellular cyclic AMP (cAMP) levels were determined by an electrochemiluminescence (ECL) assay (Meso Scale Discovery®, Gaithersburg, Md.; referred to hereinafter as MSD). […] Transgenic CHO-K1 cells stably expressing hMC receptor subtypes 1, 3, 4 or 5 were dispensed at a density of approximately 7,000 cells/well in 384-well Multi-Arrays plates (MSD) containing integrated carbon electrodes and coated with anti-CAMP antibody. Increasing concentrations of the test compounds were added and the cells were incubated for approximately 40 minutes at approximately 37° C. […] At the end of the second incubation period read buffer (Tris-buffered solution containing an ECL co-reactant and Triton X-100 at ph 7.8) was added and the cAMP levels in the cell lysates were immediately determined by ECL detection with a Sector Imager 6000 Reader® (MSD). Data were analyzed using a computer-assisted non-linear regression analysis (XL fit; IDBS) and reported as either an EC50 value or a Kb value.
(§4) The Kb value reflects the potency of an antagonist and is determined by Schild analysis. In brief, concentration-response curves of an agonist are carried out in the presence of increasing concentrations of an antagonist. […] It is calculated by extrapolating the line on a Schild plot to zero on the y-axis.

hMC3-R [6] = biological target: T2, hMC3-R; test: cyclic AMP bioassay, hMC3-R; format: cell-based
Experimental: as §3, §4

hMC4-R [7] = biological target: T3, hMC4-R; test: cyclic AMP bioassay, hMC4-R; format: cell-based
Experimental: as §3, §4

hMC5-R [8] = biological target: T4, hMC5-R; test: cyclic AMP bioassay, hMC5-R; format: cell-based

T2 sequence (P41968 whole entry): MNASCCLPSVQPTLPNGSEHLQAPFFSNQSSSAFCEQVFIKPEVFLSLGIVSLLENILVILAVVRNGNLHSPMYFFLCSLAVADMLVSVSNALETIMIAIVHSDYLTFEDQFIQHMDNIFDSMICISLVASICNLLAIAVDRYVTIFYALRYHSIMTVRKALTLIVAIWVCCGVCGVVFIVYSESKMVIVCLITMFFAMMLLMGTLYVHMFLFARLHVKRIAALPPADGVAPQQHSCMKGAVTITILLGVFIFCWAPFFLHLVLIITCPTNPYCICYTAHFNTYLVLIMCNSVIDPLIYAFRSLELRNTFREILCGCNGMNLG
T4 sequence (P33032 whole entry): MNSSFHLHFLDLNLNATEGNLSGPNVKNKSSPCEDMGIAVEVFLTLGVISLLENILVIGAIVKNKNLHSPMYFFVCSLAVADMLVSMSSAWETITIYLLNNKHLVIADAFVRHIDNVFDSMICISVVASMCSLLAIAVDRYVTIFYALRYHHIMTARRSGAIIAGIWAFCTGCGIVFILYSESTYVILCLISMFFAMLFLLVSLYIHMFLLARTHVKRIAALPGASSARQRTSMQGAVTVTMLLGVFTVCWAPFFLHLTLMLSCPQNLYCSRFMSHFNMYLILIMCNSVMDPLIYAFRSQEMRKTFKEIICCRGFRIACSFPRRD
T1 sequence (Q01726 whole entry): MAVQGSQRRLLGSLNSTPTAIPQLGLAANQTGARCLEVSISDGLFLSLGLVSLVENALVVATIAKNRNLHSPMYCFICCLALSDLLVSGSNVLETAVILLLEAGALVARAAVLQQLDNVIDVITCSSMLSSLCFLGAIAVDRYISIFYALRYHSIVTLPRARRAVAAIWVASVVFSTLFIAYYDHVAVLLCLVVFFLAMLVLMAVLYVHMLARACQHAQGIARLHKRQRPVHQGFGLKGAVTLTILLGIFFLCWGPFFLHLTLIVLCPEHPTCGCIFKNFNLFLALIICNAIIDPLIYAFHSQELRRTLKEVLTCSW
T3 sequence (P32245 whole entry): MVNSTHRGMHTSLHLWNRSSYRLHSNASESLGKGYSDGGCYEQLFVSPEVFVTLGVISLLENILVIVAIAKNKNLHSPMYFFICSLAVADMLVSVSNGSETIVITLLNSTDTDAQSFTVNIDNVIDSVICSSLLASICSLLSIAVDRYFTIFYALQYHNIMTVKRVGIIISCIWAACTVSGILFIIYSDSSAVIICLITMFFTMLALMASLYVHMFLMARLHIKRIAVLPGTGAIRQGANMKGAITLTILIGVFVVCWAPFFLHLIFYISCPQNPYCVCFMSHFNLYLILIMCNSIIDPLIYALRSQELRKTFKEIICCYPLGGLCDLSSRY

Structure (SMILES) | Ki (hMC1-R [1]) | Ki (hMC3-R [2]) | Ki (hMC4-R [3]) | Ki (hMC5-R [4]) | EC50 (hMC1-R [5]) | EC50 (hMC3-R [6]) | EC50 (hMC4-R [7]) | EC50 (hMC5-R [8]) | Kb (hMC3-R [6]) | Kb (hMC4-R [7])
CCCC[C@H](NC(C)=O)C(=O)N[C@H]1CSSC[C@@H](C(=O)NCCC(=O)N[C@@H](CCCNC(=N)N)C(=O)N[C@@H](CCCNC(=N)N)C(=O)N[C@@H](CCCCN)C(=O)N[C@@H](CCCNC(=N)N)C(=O)N[C@@H](CCCNC(=N)N)C(=O)N[C@@H](CCC(N)=O)C(=O)N[C@@H](CCCNC(=N)N)C(=O)N[C@@H](CCCNC(=N)N)C(=O)N[C@@H](CCCNC(=N)N)C(N)=O)NC(=O)[C@H](Cc2c[nH]c3ccccc23)NC(=O)[C@H](CCCNC(=N)N)NC(=O)[C@@H](Cc2ccccc2)NC(=O)[C@H](Cc2c[nH]cn2)NC(=O)[C@@H](C)NC1=O | 0.212 nM | 1.23 nM | 0.484 nM | 58.5 nM | 1.86 nM | 1.39 nM | 0.367 nM | 165 nM | – | –
CCCC[C@H](NC(C)=O)C(=O)N[C@H]1CSSC[C@@H](C(=O)NCCC(=O)N[C@@H](CCCNC(=N)N)C(=O)N[C@@H](CCCCN)C(=O)N[C@@H](CCCNC(=N)N)C(=O)N[C@@H](CCCNC(=N)N)C(=O)N[C@@H](CCCNC(=N)N)C(=O)N[C@@H](CCC(N)=O)C(=O)N[C@@H](CCCNC(=N)N)C(=O)N[C@@H](CCCNC(=N)N)C(=O)N[C@@H](CCCNC(=N)N)C(N)=O)NC(=O)[C@H](Cc2c[nH]c3ccccc23)NC(=O)[C@H](CCCNC(=N)N)NC(=O)[C@@H](Cc2ccccc2)NC(=O)[C@H](Cc2c[nH]cn2)NC(=O)[C@@H](C)NC1=O | 0.778 nM | 1.22 nM | 0.468 nM | 47 nM | 2.06 nM | 1.61 nM | 0.394 nM | 199 nM | – | –
CCCC[C@H](NC(C)=O)C(=O)N[C@H]1CSSC[C@@H](C(=O)NCCC(=O)NCC(=O)N[C@@H](CCCNC(=N)N)C(=O)N[C@@H](CCCCN)C(=O)N[C@@H](CCCNC(=N)N)C(=O)N[C@@H](CCCNC(=N)N)C(=O)N[C@@H](CCCNC(=N)N)C(=O)N[C@@H](CCC(N)=O)C(=O)N[C@@H](CCCNC(=N)N)C(=O)N[C@@H](CCCNC(=N)N)C(=O)N[C@@H](CCCNC(=N)N)C(N)=O)NC(=O)[C@H](Cc2c[nH]c3ccccc23)NC(=O)[C@H](CCCNC(=N)N)NC(=O)[C@@H](Cc2ccccc2)NC(=O)[C@H](Cc2c[nH]cn2)NC(=O)[C@@H](C)NC1=O | – | 1.21 nM | 0.293 nM | – | 2.81 nM | 3.29 nM | 0.298 nM | 566 nM | – | –
CC(=O)N[C@H]1CSSC[C@@H](C(=O)N2CCC[C@H]2C(=O)N2CCC[C@H]2C(=O)N[C@@H](CCCCN)C(=O)N[C@@H](CC(=O)O)C(=O)NCCC(=O)N[C@@H](Cc2ccc(O)cc2)C(=O)NCC(=O)N[C@@H](CCCNC(=N)N)C(=O)N[C@@H](CCCNC(=N)N)C(=O)N[C@@H](CCCCN)C(=O)N[C@@H](CCCNC(=N)N)C(=O)N[C@@H](CCCNC(=N)N)C(=O)N[C@@H](CCC(N)=O)C(=O)N[C@@H](CCCNC(=N)N)C(=O)N[C@@H](CCCNC(=N)N)C(=O)N[C@@H](CCCNC(=N)N)C(N)=O)NC(=O)[C@H](C)NC(=O)[C@H](Cc2ccc3ccccc3c2)NC(=O)[C@H](CCCNC(=N)N)NC(=O)[C@@H](Cc2ccc3ccccc3c2)NC(=O)[C@H](Cc2c[nH]cn2)NC(=O)[C@H](CCC(=O)O)NC1=O | – | 1.12 nM | – | 15.3 nM | 58.7 nM | – | – | 460 nM | 39.3 nM | 10.3 nM
CC(=O)N[C@H]1CSSC[C@@H](C(=O)N2CCC[C@H]2C(=O)N2CCC[C@H]2C(=O)N[C@@H](CCCCN)C(=O)N[C@@H](CC(=O)O)C(=O)NCCC(=O)N[C@@H](CCCNC(=N)N)C(=O)N[C@@H](CCCNC(=N)N)C(=O)N[C@@H](CCCNC(=N)N)C(=O)N[C@@H](CCCNC(=N)N)C(=O)N[C@@H](CCCNC(=N)N)C(=O)N[C@@H](CCCNC(=N)N)C(=O)N[C@@H](CCC(N)=O)C(=O)N[C@@H](CCCNC(=N)N)C(=O)N[C@@H](CCCNC(=N)N)C(=O)N[C@@H](CCCNC(=N)N)C(N)=O)NC(=O)[C@H](C)NC(=O)[C@H](Cc2ccc3ccccc3c2)NC(=O)[C@H](CCCNC(=N)N)NC(=O)[C@@H](Cc2ccc3ccccc3c2)NC(=O)[C@H](Cc2c[nH]cn2)NC(=O)[C@H](CCC(=O)O)NC1=O | 3.65 nM | – | – | – | 29.1 nM | – | – | – | 13.6 nM | 13.4 nM
CC(=O)N[C@H]1CSSC[C@@H](C(=O)N2CCC[C@H]2C(=O)N2CCC[C@H]2C(=O)N[C@@H](CCCCN)C(=O)N[C@@H](CC(=O)O)C(=O)NCCC(=O)NCC(=O)N[C@@H](CCCNC(=N)N)C(=O)N[C@@H](CCCCN)C(=O)N[C@@H](CCCNC(=N)N)C(=O)N[C@@H](CCCNC(=N)N)C(=O)N[C@@H](CCCNC(=N)N)C(=O)N[C@@H](CCC(N)=O)C(=O)N[C@@H](CCCNC(=N)N)C(=O)N[C@@H](CCCNC(=N)N)C(=O)N[C@@H](CCCNC(=N)N)C(N)=O)NC(=O)[C@H](C)NC(=O)[C@H](Cc2ccc3ccccc3c2)NC(=O)[C@H](CCCNC(=N)N)NC(=O)[C@@H](Cc2ccc3ccccc3c2)NC(=O)[C@H](Cc2c[nH]cn2)NC(=O)[C@H](CCC(=O)O)NC1=O | 5.66 nM | – | – | – | 309 nM | – | – | 570 nM | 22.8 nM | 17.1 nM
